Assay results taken from patent publication US11083708B2, “Pharmacological restoration of epithelial or endothelial barrier integrity by agents blocking EPAC/RAP1 signaling” (The Regents of the University of California, priority 2018, dated 2021).
Entries after “also recorded” stand apart in the source; their conditions may differ.

How the values were obtained:
ET-induced footpad edema = assay: Mouse footpad edema assay: ET injected into the footpad after systemic drug pre-treatment; type: in vivo, BALB/cJ mice; conditions: for Inhibition of ET-induced footpad swelling (edema): i.p. pre-treatment 2-3 h before ET 0.15 pg/20 pl, ESI-09, AG1024, H89 10 mg/kg, SecinH3 250 ul of 2.5 mM, also 2 h post toxin, edema at 8-10 h or 18-24 h
Excerpt: To verify these conclusions in vivo, a footpad swelling assay was turned to in which intra-dermal injection of ET results in robust quantifiable edema. […] The question of which branch(es) of the cAMP pathway contributed to EF-mediated edema was examined by comparing the relative abilities of H89 and ESI-09 to block ET-induced footpad swelling. […] It was concluded that the Epac/Rap1 pathway is the primary mediator of EF-induced edema. In addition, the effect of AG1024 [47], an inhibitor of insulin-like growth factor receptor (IGF-1R), was tested. […] These findings, together with the results described above provide a framework for how effector pathways contribute to cAMP-mediated disruption of Rab11-dependent membrane trafficking (See FIG. 6 for summary diagram).
BALB/cJ mice (8-10 weeks old, female; Jackson Laboratories, Bar Harbor, Me.) were intraperitoneally injected with drugs. SecinH3 (TOCRIS #2849), AG1024 (Selleckchem, S1234), ESI-09 (TOCRIS #4773) or H89 (TOCRIS #2910), or with vehicle (70% DMSO in isotonic glucose for SecinH3, 30% DMSO in isotonic glucose for other drugs) 2-3 h prior to injection of ET (0.15 pg/20 pl, right footpad) or PBS (20 pl, left footpad), and in the case of SecinH3, also 2 h post toxin injection. ESI-09, AG1024 and H89 were administered at 10 mg/kg and SecinH3 was administered as 250 ul and 2.5 mM solution. Edema was assessed at 8-10 h, or 18-24 h by dorsal/plantar measurements using digital calipers.

HBMECs = assay: ET (EF+PA) intoxication of HBMEC cultures with drug co-treatment; anti-pan-cadherin stain of adherens junctions, Sec15-GFP punctae; type: cell-based, human; conditions: EF and PA 0.2 pg/ml-0.4 pg/ml, co-treatment 24 hrs, Slit2 10 pg/ml, ESI-09 100 pM, H89 10 pM
Method: The relative contributions of the Arf6, Epac, and PKA pathways to EF-induced inhibition of Rab11 was next examined, making use of HBMEC cultures. […] To inhibit the Arf6 pathway, cells were treated with Slit2, a secreted peptide that activates the Robo4 receptor to promote vascular stability via stimulation of the ArfGAP GIT [27]. […] Next, to determine the relative contribution of each branch of the cAMP pathway, EF-intoxicated cells were co-treated with ESI-09, an inhibitor specific for Epac, or with H89, a well-characterized inhibitor of PKA[45]. […] It was concluded that Epac/Rap1 is the predominant pathway mediating the cAMP induced effects of ET on exocyst-dependent junctional traffic in this setting.
HBMEC cultures were maintained in DMEM (Corning; Manassas, Va.) containing 10% FBS, 1% Penicillin/streptomycin, 2 mM L-glutamine and were incubated in 37° C., 5% CO2 atmosphere. Cells were gently dislodged with 0.05% trypsin (Mediatech Inc.) and cultured on glass poly-D-lysine coated chamber slides (BD Falcon #354108). At about 80% confluence, EF and PA (0.2 pg/ml-0.4 pg/ml) were added to cells. […] After 24 hrs (FIGS. 5A-5H), cells were fixed for 10 mins at −20° C. in 100% Methanol, then washed with 0.1% Triton in PBS, Sec15GFP fluorescence was inspected directly, while Methanol-fixed cells were stained with a mouse anti pan-Cadherin antibody (Abcam, clone CH-19, 1/100). […]

| Compound | Inhibition of ET-induced footpad swelling (edema) (ET-induced footpad edema) | Reversal of ET footpad swelling at both early (8 h) and late (18 h) times (ET-induced footpad edema; injected systemically in mice, 8 h and 18 h) | Rescue of junctional pan-cadherin accumulation / adherens junctions (AJs) compromised by EF/ET (HBMECs) | ET-induced edema in animals in which systemic pre-treatment induced observable symptoms of malaise (ET-induced footpad edema; SecinH3-pretreated mice showing malaise) | Tolerability of systemic pre-treatment with the drug (ET-induced footpad edema; SecinH3 i.p., 250 ul of 2.5 mM solution, some animals) |
| --- | --- | --- | --- | --- | --- |
| CC(C)(C)c1cc(C=C(C#N)C#N)cc(Br)c1O [AG1024] | significant reduction of edema; also recorded: can be suppressed; also recorded: Strong, although less persistent, suppression of footpad swelling |  |  |  |  |
| CC(C)(C)c1cc(C(=O)/C(C#N)=N/Nc2cccc(Cl)c2)no1 [ESI-09] | absolute inhibition of edema; also recorded: strong inhibition of footpad swelling; also recorded: can be suppressed | can reverse the footpad swelling | partially restore normal junctional traffic and visible AJs; also recorded: partially rescues pan-cadherin expression at AJs; also recorded: partially restore junctional barrier integrity |  |  |
| O=S(=O)(NCCNC/C=C/c1ccc(Br)cc1)c1cccc2cnccc12 [H89] | little or no effect |  | no detectable rescue; also recorded: does not appreciably rescue junctional cadherin expression |  |  |
| COc1nc(-c2ccc3c(c2)OCO3)n(-c2ccc(NC(=O)CSc3ccccc3)cc2)n1 [SecinH3] | strongly inhibited; also recorded: blocked EF-induced edema; also recorded: can be suppressed |  |  | virtually abolished | observable symptoms of malaise |
